Data set [1] is described as follows: Viscosity of peptide solution before and after gelation (rheometer, flow experiment). The data set is classed as physicochemical. The protocol: The viscosity of the peptide solution before and after gelation is determined using the same rheometer, 25 mm parallel plate geometry, and a gap of 0.5 mm at 25° C. For the peptide solution, 250 μl of 13 mg/mL peptide solution is dropped on the Peltier plate and measured. For peptide gel samples, the peptide solution and 10×PBS buffer are mixed with the ratio of 1:10 on the Peltier plate and directly measured. The flow experiment is set up by starting the shear rate from 0.1 to 1500 s-1 for a 200-seconds duration. The value of the shear rate that we choose for our printing system is calculated using the equation below: 51
[formula] • γ: shear rate (s−1); Q: flow rate (95 μL/s); d: diameter of needle (0.514 mm).

Data set [2] deals with human dermal fibroblasts (hDF). It is filed as cell-based. The protocol:
hDF is used in bioprinting experiments. Each cell type is cultured in its complete growth media, as described before, and cells at passages 4-8 are used in printing experiments. For bioprinting, hDF is mixed with PBS at a final concentration of 5×10^6 and 8×10^6 cells/ml, respectively, and loaded into the microfluidic tubing of the robotic arm bioprinter. In the printing process, the flow rates are 10 μl/min, 55 μl/min, and 8 μl/min for cells, peptide solution, and 5×PBS, respectively. Different cell-laden structures are printed including cuboids with 10 mm edges and 2.6 mm height, and cylinders with 10 mm diameter, and a height of 10 mm. After printing, the printed cell-laden constructs are placed in the CO2 incubator for 5 min before the addition of complete growth media. The printed cell-laden constructs are placed in standard conditions (37° C., 5% CO2, and 95% relative humidity), and the media are changed every three days.
LIVE/DEAD® Cell Viability/Cytotoxicity Kit (ThermoFisher®, USA) is used to assess the viability of cells within the 3D printed constructs. The same protocol, as described earlier, is followed except for increasing the incubation time to 1 hour. The viability of cells is assessed immediately after printing, within 1 hour, designated as day 0 and at days 3, 7, 17 and 24 post-printing. For each time point, two cell-laden constructs are analyzed, and images are taken from different areas of the construct, including the center, edges, top, and bottom. Stained printed cell-laden constructs are imaged using an inverted laser scanning confocal microscope (Zeiss™ LSM 880 Inverted Confocal Microscope, Germany). The number of live and dead cells are counted using imageJ software, and the percentage of cell viability is calculated as the average ratio of live to total cells.

A short description of data set [3]: Viscoelastic characterization: mechanical stiffness of peptide hydrogels (rheometer). The data set is classed as physicochemical. The protocol: The viscoelastic characteristics of peptide hydrogels, including the mechanical stiffness and viscosity, are analyzed using TA Ares-G2 Rheometer equipped with advanced Peltier system (APS). The mechanical stiffness of the peptide gels is measured using an 8 mm parallel plate with a gap of 1.8 mm, between the upper and lower plates, and at 22° C. The hydrogels are prepared, one day before the measurement, by mixing 135 μl of peptide solution, and 15 μl of 10×PBS inside a 9 mm internal diameter Sigmacote® coated glass casting ring. The rings are then kept inside Petri dishes at room temperature with water surrounding and tightly sealed to avoid dehydration. For each peptide, six replicates are prepared to control the accuracy of the measurements. The stiffness is analyzed through three successive tests, which are time-sweep, frequency-sweep, and amplitude-sweep. Time-sweep is first performed for 5 minutes with angular frequency and a strain of 1 rad/s and 0.1%, respectively. A frequency sweep is subsequently performed on the sample for a range of angular frequency of 0.1-100 rad/s with the same strain of 0.1%. The tests are completed with the amplitude sweep by applying a gradual increase of strain from 0.01% to 100% at 1 rad/s angular frequency.

Data set [4] is described as follows: Peptide gelation studies (vial inversion method). It is filed as physicochemical. The settings on record: for gelation time: 1×PBS buffer; for minimum gelation concentration: as used for 3D cell culture. The protocol: The peptide powder is dissolved in 0.90 mL of Milli-Q® water and vortexed until a clear and homogeneous solution is observed. Then 0.10 mL of 10×PBS buffer (w/o Ca^2+ and Mg^2+) is added to the peptide solution. The glass vial is kept undisturbed, and the hydrogel formation is observed using the vial inversion method. The time and minimum concentration at which each peptide has formed a hydrogel are noted.

Where [5] appears, read: gel, 13 mg/ml, shear rate 29.7 s^−1.

Non-standard residues stand in square brackets, D forms with d. Residues, ends and D or L forms follow the SMILES beside them. Cha = N[C@@H](CC1CCCCC1)C(=O)O

For `CC[C@H](C)[C@H](NC(C)=O)C(=O)N[C@@H](CC1CCCCC1)C(=O)N[C@@H](CC1CCCCC1)C(=O)N[C@@H](CCCCN)C(N)=O` [IZZK, Ac-Ile-Cha-Cha-Lys-NH2] (Ac-I[Cha][Cha]K-NH2), the Viscosity in data set [1] (setting [5]) was 0.48 Pa · s; in data set [1] (solution, 13 mg/mL) it was 0.06 Pa · s. Besides, in data set [2], the “cell viability in the center versus the edge of the filled cube structure” value is “slightly lower”. The “Loss Modulus (G′)” value in data set [3] (1 mg/mL hydrogel) was determined as 0.36 ± 0.08 kPa; in data set [3] (2 mg/mL hydrogel) it was 1.44 ± 0.07 kPa; in data set [3] (5 mg/mL hydrogel), 11.60 ± 0.51 kPa; in data set [3] (8 mg/mL hydrogel), 29.70 ± 1.54 kPa; in data set [3] (10 mg/mL hydrogel), 39.71 ± 1.50 kPa; in data set [3] (13 mg/mL hydrogel), 54.56 ± 1.46 kPa. Moreover, the “Storage Modulus (G′)” value in data set [3] (1 mg/mL hydrogel) worked out at 3.71 ± 0.19 kPa; in data set [3] (2 mg/mL hydrogel), 15.53 ± 0.74 kPa; in data set [3] (5 mg/mL hydrogel), 85.87 ± 6.50 kPa; in data set [3] (8 mg/mL hydrogel), 193.09 ± 10.13 kPa; in data set [3] (10 mg/mL hydrogel), 222.13 ± 8.16 kPa; in data set [3] (13 mg/mL hydrogel), 314.91 ± 10.10 kPa. Moreover, the “tan δ (G″/G′)” value in data set [3] (1 mg/mL hydrogel) is given as 0.10; in data set [3] (2 mg/mL hydrogel), 0.09; in data set [3] (5 mg/mL hydrogel), 0.14; in data set [3] (8 mg/mL hydrogel) it was 0.15; in data set [3] (10 mg/mL hydrogel), 0.18; in data set [3] (13 mg/mL hydrogel), 0.17.
Take “IFFK: ultrashort amphiphilic peptide, one-letter amino acid sequence (Ac-IFFK-NH2)”: the “gel quality (in words)” value in data set [4] (1 mg/ml) is recorded as “Slightly”. For the same molecule, the gelation time in data set [4] (1 mg/ml) was greater than 60 min; in data set [4] (2 mg/ml), less than 10 min; in data set [4] (3 mg/ml) it was less than 5 min; in data set [4] (4 mg/ml), less than 5 min; in data set [4] (5 mg/ml), less than 5 min; in data set [4] (10 mg/ml), less than 5 min. Also, in data set [4] (20 mg/ml), the gelation time is on record as less than 5 min.
Regarding `CC[C@H](C)[C@H](NC(C)=O)C(=O)N[C@H](C(=O)N[C@@H](Cc1ccccc1)C(=O)N[C@@H](CCCCN)C(N)=O)[C@@H](C)CC` [IIFK, Ac-Ile-Ile-Phe-Lys-NH2] (Ac-IIFK-NH2), the Viscosity in data set [1] (setting [5]) is 0.56 Pa · s; in data set [1] (solution, 13 mg/mL) it was 0.09 Pa · s. The gelation time entry was “less than 2.5 h” in data set [4] (1 mg/ml) and “less than 3 min” in data set [4] (10 mg/ml). In addition, the minimum gelation concentration in data set [4] was 2 mg/mL. The “cell viability in the center versus the edge of the filled cube structure” value in data set [2] is listed as “no difference”. The “Loss Modulus (G′)” value in data set [3] (1 mg/mL hydrogel) was 0.13 ± 0.04 kPa; in data set [3] (2 mg/mL hydrogel), 1.31 ± 0.12 kPa; in data set [3] (5 mg/mL hydrogel) it was 2.39 ± 0.11 kPa; in data set [3] (8 mg/mL hydrogel) it was 5.00 ± 0.31 kPa; in data set [3] (10 mg/mL hydrogel), 9.04 ± 0.56 kPa; in data set [3] (13 mg/mL hydrogel) it was 8.90 ± 0.36 kPa. Besides, the “Storage Modulus (G′)” value stood at 1.25 ± 0.86 kPa in data set [3] (1 mg/mL hydrogel); 14.45 ± 1.37 kPa in data set [3] (2 mg/mL hydrogel); 27.26 ± 1.30 kPa in data set [3] (5 mg/mL hydrogel); 49.74 ± 5.02 kPa in data set [3] (8 mg/mL hydrogel); 94.18 ± 7.12 kPa in data set [3] (10 mg/mL hydrogel); 108.21 ± 5.02 kPa in data set [3] (13 mg/mL hydrogel). Further, the “tan δ (G″/G′)” value in data set [3] (1 mg/mL hydrogel) is 0.10; in data set [3] (2 mg/mL hydrogel) it was 0.09; in data set [3] (5 mg/mL hydrogel), 0.09; in data set [3] (8 mg/mL hydrogel), 0.10; in data set [3] (10 mg/mL hydrogel) it was 0.10; in data set [3] (13 mg/mL hydrogel) it was 0.08.
With “FFFK: ultrashort amphiphilic peptide, one-letter amino acid sequence (Ac-FFFK-NH2)”, the gelation time in data set [4] (2 mg/ml) was less than 15 min; in data set [4] (3 mg/ml), less than 10 min; in data set [4] (4 mg/ml) it was less than 5 min; in data set [4] (5 mg/ml), less than 5 min; in data set [4] (10 mg/ml), less than 2 min. For the same molecule, the “gelation time (in words)” value in data set [4] (20 mg/ml) is “simultaneously”.
For “ZIIK: ultrashort amphiphilic peptide, one-letter sequence; Z is cyclohexylalanine (Ac-[Cha]IIK-NH2; SMILES CC[C@H](C)[C@H](NC(=O)[C@H](CC1CCCCC1)NC(C)=O)C(=O)N[C@H](C(=O)N[C@@H](CCCCN)C(N)=O)[C@@H](C)CC)”, the “gel quality (in words)” value in data set [4] (1 mg/ml) is recorded as “Very soft gel”. Besides, the gelation time was less than 60 min in data set [4] (1 mg/ml); less than 10 min in data set [4] (2 mg/ml); less than 10 min in data set [4] (5 mg/ml); less than 5 min in data set [4] (10 mg/ml); less than 5 min in data set [4] (20 mg/ml).
Turning to “FFIK: ultrashort amphiphilic peptide, one-letter amino acid sequence (Ac-FFIK-NH2)”, the “gelation (in words)” value in data set [4] (1 mg/ml, in 1 h) is recorded as “Does not gel”. The gelation time in data set [4] (2 mg/ml) is given as less than 10 min; in data set [4] (3 mg/ml), less than 10 min; in data set [4] (5 mg/ml), less than 5 min; in data set [4] (10 mg/ml), less than 5 min; in data set [4] (20 mg/ml), less than 5 min.
Turning to `CC[C@H](C)[C@H](NC(C)=O)C(=O)N[C@H](C(=O)N[C@@H](CC1CCCCC1)C(=O)N[C@@H](CCCCN)C(N)=O)[C@@H](C)CC` [IIZK, Ac-Ile-Ile-Cha-Lys-NH2] (Ac-II[Cha]K-NH2), the Viscosity in data set [1] (setting [5]) was determined as 0.47 Pa · s; in data set [1] (solution, 13 mg/mL), 0.03 Pa · s. Also, in data set [4] (1 mg/ml), the gelation time entry was “less than 7 min”. In addition, the minimum gelation concentration in data set [4] is 1 mg/mL. For the same molecule, in data set [2], the “cell viability in the center versus the edge of the filled cube structure” value is recorded as “slightly lower”. Further, the “Loss Modulus (G′)” value in data set [3] (1 mg/mL hydrogel) came out at 0.88 ± 0.04 kPa; in data set [3] (2 mg/mL hydrogel) it was 2.02 ± 0.09 kPa; in data set [3] (5 mg/mL hydrogel), 7.08 ± 0.59 kPa; in data set [3] (8 mg/mL hydrogel), 10.91 ± 0.44 kPa; in data set [3] (10 mg/mL hydrogel), 15.54 ± 0.68 kPa; in data set [3] (13 mg/mL hydrogel), 37.76 ± 2.38 kPa. Further, the “Storage Modulus (G′)” value in data set [3] (1 mg/mL hydrogel) stood at 6.52 ± 0.18 kPa; in data set [3] (2 mg/mL hydrogel), 16.82 ± 0.72 kPa; in data set [3] (5 mg/mL hydrogel), 64.74 ± 4.89 kPa; in data set [3] (8 mg/mL hydrogel), 89.40 ± 1.86 kPa; in data set [3] (10 mg/mL hydrogel), 134.04 ± 5.99 kPa; in data set [3] (13 mg/mL hydrogel), 271.34 ± 35.09 kPa. Further, the “tan δ (G″/G′)” value in data set [3] (1 mg/mL hydrogel) was 0.13; in data set [3] (2 mg/mL hydrogel), 0.12; in data set [3] (5 mg/mL hydrogel), 0.11; in data set [3] (8 mg/mL hydrogel), 0.12; in data set [3] (10 mg/mL hydrogel), 0.12; in data set [3] (13 mg/mL hydrogel), 0.14.
For “FIIK: ultrashort amphiphilic peptide, one-letter amino acid sequence (Ac-FIIK-NH2)”, the “gel quality (in words)” value in data set [4] (1 mg/ml) is “Soft gel”. Further, the gelation time in data set [4] (1 mg/ml) is listed as less than 15 min; in data set [4] (2 mg/ml) it was less than 5 min; in data set [4] (3 mg/ml), less than 10 min; in data set [4] (5 mg/ml), less than 10 min; in data set [4] (10 mg/ml), less than 5 min; in data set [4] (20 mg/ml), less than 5 min.

The values above are taken from patent US12590121B2, “Peptide compound with repetitive sequences” (KING ABDULLAH UNIVERSITY OF SCIENCE AND TECHNOLOGY, priority 2020, dated 2026).
